Experimental data published in paper PMC11249646, “Small-Molecule Disruptors of the Interaction between Calcium- and Integrin-Binding Protein 1 and Integrin αIIbβ3 as Novel Antiplatelet Agents” (ACS Pharmacology & Translational Science, 2024).
In brackets after ≈: the same amount, converted by molar mass. Where two headings read alike, the source gives them in different places.

What was measured:
[1] = molecular target: T1, CIB1 and αIIb interaction (GST-CIB1 : F-αIIb peptide) (Homo sapiens, UniProt Q99828); assay: FP assay, 384-well format (screen); type: binding; design: 384-well SCREEN Efficacy (%): concentration or dose not given beside the values; conditions: for 384-well SCREEN Confirm?: YES/NO
T1 construct: made in house; host or cells: BL-21 plus RIL cells (E. coli)
T1 sequence (Q99828 1-191): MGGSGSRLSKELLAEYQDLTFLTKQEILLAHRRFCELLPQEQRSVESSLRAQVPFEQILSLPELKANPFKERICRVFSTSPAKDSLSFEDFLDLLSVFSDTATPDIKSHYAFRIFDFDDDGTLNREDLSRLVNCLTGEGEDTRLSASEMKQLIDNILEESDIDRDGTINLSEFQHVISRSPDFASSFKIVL

[2] = molecular target: T2, GST-CIB1 : F-scrambled peptide (Homo sapiens, UniProt Q99828); assay: FP scrambled-peptide counter screen, 384-well format; type: binding; conditions: F-scrambled peptide; for 384-well COUNTERSCREEN Confirm?: *: Curve in opposite direction; for IC50: read-out: 384-well COUNTERSCREEN IC50
T2 construct: made in house; host or cells: BL-21 plus RIL cells (E. coli)
T2 sequence (Q99828 1-191): T1 sequence (Q99828 1-191)

[3] = molecular target: T3, CIB1 and αIIb interaction (CIB1-GST : F-αIIb peptide) (Homo sapiens, UniProt Q99828); assay: FP assay, 1536-well qHTS format (primary and confirmatory screen); type: binding; conditions: for CONFIRMATORY SCREEN Confirm?: YES/NO call; for CONFIRMATORY SCREEN Efficacy (%) / Efficacy (%): negative = inhibition
T3 construct: made in house; host or cells: BL-21 plus RIL cells (E. coli)
T3 sequence (Q99828 1-191): T1 sequence (Q99828 1-191)

[4] = molecular target: T2, GST-CIB1 : F-scrambled peptide; assay: FP scrambled-peptide counter screen, 1536-well format; type: binding; conditions: for COUNTERSCREEN Confirm?: YES/NO call
[5] = molecular target: T4, GST-CIB1:F-αIIb interaction (Homo sapiens, UniProt Q99828); assay: Gel-based (in-gel) binding assay; conditions: 1 μM GST-CIB1, 400 nM F-αIIb; 60 μM, 1:2, 4-points
T4 construct: made in house; host or cells: BL-21 plus RIL cells (E. coli)
T4 sequence (Q99828 1-191): T1 sequence (Q99828 1-191)

[6] = molecular target: T5, GST-CIB1 : F-αIIb peptide (Homo sapiens, UniProt Q99828); assay: FP assay in the presence of glutathione (GSH), thiol reactivity; type: binding; conditions: for GSH/CIB1 IC50 ratio: ratio of GSH (+) IC50 to GSH (-) IC50; for GSH Assay Result: thiol reactivity call: No change / Active
T5 construct: made in house; host or cells: BL-21 plus RIL cells (E. coli)
T5 sequence (Q99828 1-191): T1 sequence (Q99828 1-191)

[7] = system: washed human platelets; assay: Human platelet aggregation assay (thrombin-induced); type: cell-based
Excerpt: A classical challenge in target-based drug discovery is moving from biochemical to cellular assay and the essential step of determining if the compounds of interest can perform in a cellular context. After characterization of the compounds in a series of biochemical assay formats, our next step was to assess their activity in a cellular environment. Our previous studies have shown that the interaction of the cytoplasmic domain of integrin αIIbβ3, a key regulator of platelet aggregation, with CIB1, is involved in downstream signaling in platelet activation and aggregation. We sought to determine whether our candidate compounds were inhibiting this interaction by evaluating them for platelet function in a human platelet aggregation assay. We prepared platelet-rich plasma (PRP) and washed the platelets as previously described[44] and then performed a platelet aggregation assay using the washed platelet suspensions (2 × 10^8/platelets/mL) followed by the recording of aggregation traces (see Materials and Methods Section). To induce platelet aggregation, 0.03 U/mL of thrombin, a physiological agonist of platelet activation, was used.
Figure 6 Effect of compounds on human platelet activation. Representative platelet aggregation tracings of washed human platelet suspensions pretreated for 30 min at 37 °C with vehicle (DMSO) or compounds at indicated concentrations followed by activation with thrombin (0.03–0.1 U/mL). Panel (A): NCGC00071855. Panel (B–D): NCGC00351170. Panel (E): CD62P exposure was in the presence of NCGC00351170. Data represents mean ± SEM, n = 4 individual experiments; ns = non significant *P < 0.05, ***P < 0.001, ****P < 0.0001.
Whole blood was drawn by venipuncture from healthy adult volunteers (of both gender and race) with informed consent. Approval was obtained from the institutional review boards of Thomas Jefferson University, according to the Declaration of Helsinki. Blood was collected in acidified citrate dextrose as an anticoagulant. Platelet-rich plasma (PRP) and washed platelets were prepared, as previously described.[44] Platelet aggregation was performed using washed platelet suspensions containing 2 × 10^8 platelets/mL using a Chrono-Log Lumi-Aggregometer (Chrono-Log), as described previously.[11] Aggregation traces were recorded by using Aggrolink software (Chrono-Log). Thrombin-induced P-selectin (CD62P) exposure was performed using Accuri C6 flowcytometer (BD Bioscience) as described previously.[11]
Figure S9: Effect of compounds on human platelet activation. Representative platelet aggregation
tracings of washed human platelet suspensions treated with vehicle (DMSO) or indicated
compounds at 10 μM for 30 minutes at 37 °C followed by activation with thrombin (0.03U/mL).

[8] = In vitro ADME: solubility; type: physicochemical; conditions: read-out: Solubility
[9] = In vitro ADME: PAMPA permeability
[10] = molecular target: T6, CIB1 and αIIb peptide (Homo sapiens, UniProt Q99828); assay: Intrinsic tryptophan fluorescence (ITF) assay
T6 sequence (Q99828 1-191): T1 sequence (Q99828 1-191)

[11] = F-αIIb peptide, read-out: 384-well SCREEN IC50
[12] = confirmatory screen, qHTS curve class, negative sign = inhibitory curve
[13] = confirmatory screen, read-out: CONFIRMATORY SCREEN IC50
[14] = scrambled-peptide counterscreen
[15] = scrambled-peptide counterscreen, qHTS curve class
[16] = scrambled-peptide counterscreen, read-out: COUNTERSCREEN IC50
[17] = FP assay in the presence of glutathione (GSH +), read-out: GSH (+) Assay IC50
[18] = FP assay without glutathione (GSH -), read-out: GSH (-) Assay IC50
[19] = qHTS primary screen hits, Table S2
[20] = qHTS primary screen hits, Table S2, read-out: IC50

Row | 384-well SCREEN Efficacy (%) ([1]; F-αIIb peptide) | 384-well SCREEN Confirm? ([1]; F-αIIb peptide) | IC50 [1, 11] [µM] | 384-well COUNTERSCREEN Efficacy (%) [2] [%] | 384-well COUNTERSCREEN Confirm? [2] | IC50 [2] [µM] | CONFIRMATORY SCREEN Confirm? ([3]; confirmatory screen) | CONFIRMATORY SCREEN Curve Class [3, 12] | CONFIRMATORY SCREEN Efficacy (%) ([3]; confirmatory screen) | IC50 [3, 13] [µM] | COUNTERSCREEN Efficacy (%) [4, 14] [%] | COUNTERSCREEN Confirm? [4, 14] | COUNTERSCREEN Curve Class [4, 15] | IC50 [4, 16] [µM] | Active in Gel Assay? [5] | IC50 [6, 17] [µM] | IC50 [6, 18] [µM] | GSH/CIB1 IC50 ratio [6] | GSH Assay Result [6] | solubility [8] [µg/mL] | SMILES | further results
1 | 76 | YES | 7.9 | 50 | YES | 31.6 | YES | -1.4 | -40 | 5.6 | -36 | YES | -1.4 | 25.1 | YES | 3.1 | 6.3 | 0.5 | No change | 9 (≈ 29.4 µM) | O=C(c1cccs1)c1no[n+]([O-])c1C(=O)c1cccs1 [NCGC00071855-04] | Platelet Aggregation Result ([7]; 10 μM compound): Active; Papp [9]: 156 ×10⁻⁶ cm/s; IC50 [10]: 53.1 µM
2 | 76 | YES | 1.3 | 23 | YES | > 120 | YES | -1.4 | -74 | 2.8 | -34 | YES | -1.2 | 31.6 | YES | 0.326 | 0.232 | 1.4 | No change |  | Oc1ccc2ccccc2c1SSc1c(O)ccc2ccccc12 [NCGC00186047-02, IPA-3, reference compound] | Efficacy (%) [3, 19]: -21%; Curve Class ([3]; qHTS primary screen hits, Table S2, negative sign = inhibitory curve): -1.4; IC50 [3, 20]: 10.3 µM; shift in potency in the presence of GSH ([6]; with vs without 10 μM reduced GSH): no shift; IC50 [10]: 16.6 µM
3 |  |  |  |  |  |  |  |  |  |  |  |  |  |  |  |  |  |  |  | 26 (≈ 88.4 µM) | O=C(c1ccccc1)c1no[n+]([O-])c1C(=O)c1ccccc1 [NCGC00351168-02] | IC50 ([1]; 384-well FP assay, Table 1, read-out: FP assay IC50): 7.85 µM; Efficacy (%) (confirmatory screen) ([3]; confirmatory screen): -54%; Confirm? (confirmatory screen) ([3]; confirmatory screen, YES/NO): YES; Curve Class (confirmatory screen) [3, 12]: -2.2; IC50 ([3]; confirmatory screen, read-out: IC50 [μM] (confirmatory screen)): 31.6 µM; Efficacy (%) [3, 19]: -49%; Curve Class ([3]; qHTS primary screen hits, Table S2, negative sign = inhibitory curve, several classes where COUNT > 1): -1.2; IC50 [3, 20]: 25.1 µM; Efficacy (%) (counterscreen) ([4]; counterscreen): -34%; Curve Class (counterscreen) ([4]; counterscreen, qHTS curve class, negative sign = inhibitory curve): -1.4; IC50 ([4]; counterscreen, read-out: IC50 [μM] (counterscreen)): 25.1 µM; inhibition at 10 µM ([7]; Homo sapiens, Platelet, single concentration of 10 μM (n = 3), thrombin): 97%; Thrombin Assay 10 µM (%) ([7]; platelet aggregation inhibition at 10 µM): 97%; Papp [9]: 2 ×10⁻⁶ cm/s

Row | SMILES | 384-well SCREEN Efficacy (%) ([1]; F-αIIb peptide) | 384-well SCREEN Confirm? ([1]; F-αIIb peptide) | IC50 [1, 11] [µM] | 384-well COUNTERSCREEN Efficacy (%) [2] [%] | 384-well COUNTERSCREEN Confirm? [2] | IC50 [2] [µM] | CONFIRMATORY SCREEN Confirm? ([3]; confirmatory screen) | CONFIRMATORY SCREEN Curve Class [3, 12] | CONFIRMATORY SCREEN Efficacy (%) ([3]; confirmatory screen) | IC50 [3, 13] [µM] | COUNTERSCREEN Efficacy (%) [4, 14] [%] | COUNTERSCREEN Confirm? [4, 14] | COUNTERSCREEN Curve Class [4, 15] | IC50 [4, 16] [µM] | Active in Gel Assay? [5] | IC50 [6, 17] [µM] | IC50 [6, 18] [µM] | GSH/CIB1 IC50 ratio [6] | GSH Assay Result [6] | solubility [8] [µg/mL] | further results
4 | COc1ccc(CNC(=O)c2nc(S(=O)(=O)Cc3ccccc3)ncc2Cl)cc1.O=C(O)C(F)(F)F [NCGC00117170-03] | 56 | YES | 7.1 | 17 | YES | > 120 | YES | -1.4 | -29 | 12.6 | -18 | YES | 4 |  | YES | 4.1 | 3.2 | 1.3 | No change |  | Efficacy (%) ([3]; qHTS FP screen hits, Table S2): -38%; Curve Class ([3]; qHTS FP screen hits, Table S2, one class per curve where COUNT > 1, negative sign = inhibitory curve): -1.2; IC50 ([3]; qHTS FP screen hits, Table S2, read-out: IC50): 2 µM; ITF IC50 [10]: inactive
